# According to patent US9408885B2, “Combinations of therapeutic agents for treating melanoma” (VIB VZW, priority 2011, dated 2016):
# Tests used:
# [1] = test system: MM031 melanoma cells; conditions: MM031, 6.25-50 μM Cisplatin or 25-200 μM Melphalan, 24 hours
# Experimental: (§4) Cell viability was measured at 24 hours by CellTiter-Glo assay. Data represent the mean (±SD) of at least three biological replicates. […] Data represent the mean (±SD) of at least three biological replicates. […] Data represent the mean (±SD) of at least three biological replicates.
# [2] = test system: MM011 melanoma cells; conditions: MM011, 6.25-50 μM Cisplatin or 25-200 μM Melphalan, 24 hours
# Experimental: as §4
# [3] = test system: MDM4 protein in A375 cells; experiment: MDM4 protein expression level, A375; assay type: cell-based, human; conditions: A375, 5 μM, 24 hours
# Experimental: (§1) FIG. 4: AKT inhibitors destabilize the MDM4 protein levels in melanomas.
# (§2) In the present example we applied the Akt IV inhibitor on two different melanoma cell lines (i.e., the human amelanotic melanoma cell line A375 and the metastatic 451-lu human melanoma cell line, the latter also described in D. Herlyn et al. (1990), Cancer Research 50, 2296-2302).
# (§3) Cells, adult tissue samples, or tumors were lysed in Giordano buffer (50 mM Tris-HCl (pH 7.4); 250 mM NaCl; 0.1% Triton X-100; 5 mM EDTA) containing phosphatase and protease inhibitors (Sigma). The adult tissue samples were sonicated three times 10 sec. The protein concentration was determined by Bradford assay (OD 595 nm; Bio-Rad Protein Assay) and 40 μg of each sample were fractionated by SDS-PAGE (Invitrogen; NuPAGE® Novex® 4-12% Bis-Tris Gel). The fractionated extracts were then transferred to a PVDF membrane (iBlot® Dry Blotting System). Membranes were blocked in Tris-buffered saline, 0.2% Tween-20 (TBST) containing 5% or 10% non-fat dry milk, and subsequently incubated with the appropriate primary antibody. […] After five washes with TBST, proteins were detected by enhanced chemiluminescense “ECL Western Blotting Detection Reagents” (Amersham Biosciences) or “SuperSignal West Femto Maximum Sensitivity Substrate” (Thermo Scientific) and visualized by exposure to X-ray film (Amersham Biosciences). […]
# [4] = test system: MDM4 protein in 451-lu cells; experiment: MDM4 protein expression level, 451-lu; assay type: cell-based, human; conditions: 5 μM, 24 hours
# Experimental: as §1, §2, §3
# [5] = test system: p53 pathway in MM cell lines overexpressing MDM4; experiment: p53 tumor suppressor response (p53 and p21 protein levels) in short-term cultured melanoma cell lines; assay type: cell-based, human; conditions: all but one (MM87) of the cell lines overexpressing MDM4; nutlin-3 at high concentrations
# Experimental: Cells, adult tissue samples, or tumors were lysed in Giordano buffer (50 mM Tris-HCl (pH 7.4); 250 mM NaCl; 0.1% Triton X-100; 5 mM EDTA) containing phosphatase and protease inhibitors (Sigma). The adult tissue samples were sonicated three times 10 sec. […] The fractionated extracts were then transferred to a PVDF membrane (iBlot® Dry Blotting System). Membranes were blocked in Tris-buffered saline, 0.2% Tween-20 (TBST) containing 5% or 10% non-fat dry milk, and subsequently incubated with the appropriate primary antibody. Membranes were washed five times with TBST and incubated with either horseradish peroxidase-conjugated horse anti-mouse or goat anti-rabbit secondary antibody (Cell Signaling). After five washes with TBST, proteins were detected by enhanced chemiluminescense “ECL Western Blotting Detection Reagents” (Amersham Biosciences) or “SuperSignal West Femto Maximum Sensitivity Substrate” (Thermo Scientific) and visualized by exposure to X-ray film (Amersham Biosciences).
SMILES,"growth inhibition, alkylating agent alone [1]","growth inhibition, alkylating agent alone [2]",p53 protein levels and p21 expression [5],other results
N.N.[Cl][Pt][Cl] [cisplatin],variable growth inhibition effects,variable growth inhibition effects,–,–
CC[n+]1c(/C=C/N(C)c2ccccc2)n(-c2ccccc2)c2ccc(-c3nc4ccccc4s3)cc21.[I-] [Akt IV inhibitor],–,–,–,protein expression level of MDM4 [3]: down-regulate; protein expression level of MDM4 [4]: down-regulate
N[C@@H](Cc1ccc(N(CCCl)CCCl)cc1)C(=O)O [melphalan],variable growth inhibition effects,variable growth inhibition effects,–,–
COc1ccc(C2=N[C@@H](c3ccc(Cl)cc3)[C@@H](c3ccc(Cl)cc3)N2C(=O)N2CCNC(=O)C2)c(OC(C)C)c1 [nutlin-3],–,–,increased p53 protein levels and induction of expression of p21,–
COc1cccc2c1C(=O)c1c(O)c3c(c(O)c1C2=O)C[C@@](O)(C(=O)CO)C[C@@H]3O[C@H]1C[C@H](N)[C@H](O)[C@H](C)O1 [doxorubicin],–,–,increased p53 protein levels and induction of expression of p21,–
